The text below walks through data of patent US5086059A, “Bis-naphthalimides as anticancer agents” (Du Pont Merck Pharmaceutical Company, priority 1990, dated 1992).

The test system of assay [1] is L1210 cells. The experiment in a line: In vitro Growth Inhibitory Activity Determination (L1210, MTT). Format: cell-based. To be noted: 3 days at 37° C., read-out: ID50 (L1210). As to the method:
L1210 cells were maintained in RPM-1640 a medium supplemented with 10% heat inactivated fetal bovine serum and […] mercaptomethanol/liter medium (RPMI-L). B16 cells were maintained in RPMI-1640 medium supplemented with 15% heat inactivated fetal bovine serum and antibiotics (RPMI-C).
Exponential growing L1210 cells (1×10^3 cells) or B16 cells (2-3×10^3 cells) in 0.1 mL medium were seeded on day 0 in a 96-well microtiter plate. On day 1, 0.1 mL aliquot of medium containing graded concentration of test analogs was added to the initial volume. After incubation at 37° C. in a humidified incubator for 3 days, the plates were centrifuged briefly and […] of the growth medium was removed. Cell cultures were incubated with […] of 3-(4,5-dimethylthiazol-2-yl)-2,5-diphenyltetrazolium bromide (MTT; 1 mg/ml in Dulbecco's phosphate buffer saline) for 4 hr. at 37° C. The resulting purple formazan precipitate was solubilized with […] of 0.04 N HCl in isopropyl alcohol. Absorbance was read in a Titertek Multiskan MCC scanning well spectrophotometer (Flow Laboratories) at a test wavelength of 570 nm and a reference wavelength of 630 nm.
The absorbances were stored on a floppy disk on a IBM-XT and uploaded on to a VAX computer. The ID50 values were determined by a computer program that fit all of the data (8 determinations per concentration and 12 concentrations per test analog) to the following equation:
Y=((Am-Ao)/(1+(X/ID50)n))+Ao
Am=absorbance of the control cells
Ao=absorbance of the cells in the presence of highest drug conc.
ID50 =dose of drug that inhibits the growth of cells to one half that of the control cells

Assay [2] has as its system B16F10 melanoma. The experiment in a line: Tumor Cell Clearance Test B16F10 Melanoma. It counts as in vivo, mouse. To be noted: for CPM/Lung (Mean + SEM): labelled B16F10 cells i.v. 24 h later, lungs counted 18 h later; for CPM/Lung (Mean + SEM) / Treated/Control: N=6; for Treated/Control: T/C <0.40 considered positive. From the text: One common route of cancer spread is through the blood. Very few cancer cells survive this hostile environment to go on and form metastases; NK cells and macrophages are believed to play an important role in controlling this hematogenous spread (Hanna, N. Cancer Research, 42:1337, 1982). Following the injection of various immunomodulators, macrophages and NK cells can be removed and shown to kill tumor cells in tissue culture. […] In the tumor cell clearance assay detailed below, radiolabelled tumor cells are injected intravenously (i.v.) into mice injected with an immunomodulator one day earlier. A decreased number of tumor cells, as reflected by a decreased amount of radioactivity remaining in the lungs, is used as an endpoint.
The B16 tumor line established from melanoma tumor which arose spontaneously on the skin at the base of the ear in a C57BL mouse. The B16F10 tumor subline was derived from the parent B16 line by selection for its ability to form lung tumors […] after i.v. injection and was subsequently established in vitro after 10 cycles of lung metastasis formation (Fidler, Eur. J. Cancer 9:223, 1973). The B16F10 tumor line is maintained by serial passage in vitro.
On day 0 female mice are injected intraperitoneally (i.p.) with test compound (6 mice/group) or vehicle alone (10 mice/group). Twenty-four hours later all mice are injected intravenously with 100,000 [^125 I] Iododeoxyuridine labelled B16F10 melanoma cells in 0.2 mL. Eighteen hours later mice are sacrificed and lungs removed and counted on a gamma counter.
Control and experimental group mean values are compared to the vehicle control using a Student's t-test. Poly I:C is an immunostimulant which activates macrophages and NK cells to kill and clear tumor cells faster and thus results in fewer cpm/lung. Statistical significance is set at p<0.05, and compounds with treated/control (T/C) values of <0.40 are considered positive.

Where a name gives a salt, the structure may show the parent alone. Read-outs that look alike come from different tables or passages of the source.

For `O=C1c2ccc3c4c(ccc(c24)C(=O)N1CCCCNCCCN1C(=O)c2ccc4c5c(ccc(c25)C1=O)CC4)CC3` [Example 4, 4-3-(1,3,6,7-Tetrahydro-1,3-dioxo-2H-indeno6,7,1-def]isoquinoline-2-yl)propyl-amino1-1-(1,3,6,7-tetrahydro-1,3-dioxo-2H-indeno-6,7,1-def]isoquinoline-2-yl)butane methanesulfonate], in assay [1] (Mus musculus, L1210, 72 h), the IC50 came to 290 nM.
Same read-out and setting: for `O=C1c2ccc3c4c(ccc(c24)C(=O)N1CCCNCCCCNCCCN1C(=O)c2ccc4c5c(ccc(c25)C1=O)CC4)CC3` [Example 1, 1,4-Bis-[3-(1,3,6,7-tetrahydro-1,3-dioxo-2H-indeno[6,7,1-def]isoquinoline-2-yl)propyl)-amino]butane dihydromethanesulfonate] the value was 3010 nM.
On to `O=C1c2ccc3c4c(ccc(c24)C(=O)N1CCCNCCCCNCCCN1C(=O)c2ccc4c5c(ccc(c25)C1=O)CC4)CC3` [Example 2, 1.4-Bis-[3 3.6 7-tetrahydro-1.3-dioxo-2H-indeno[6,7,1-def]isoquinoline-2-yl)propyl-amino]butane dihydrochloride], for which the IC50 in assay [1] (dihydrochloride, 4320 min) was 1720 nM.
Regarding Poly I:C [reference compound], the “CPM/Lung (Mean + SEM)” value in assay [2] (5 mg/kg i.p. on day 0) is reported as 1044 + 87 CPM/Lung. For the same compound, in assay [2] (5 mg/kg i.p., *p < 0.001 compared to vehicle control), the Treated/Control was found to be 0.03.
On to `CCN(CCCCN(CC)CCCN1C(=O)c2ccc3c4c(ccc(c24)C1=O)CC3)CCCN1C(=O)c2ccc3c4c(ccc(c24)C1=O)CC3` [Example 3, 1,4-Bis-3-(1,3,6,7-tetrahydro-1,3-dioxo-2H-indeno6,7,1-def]isoquinoline-2-yl)-N-ethyl-propylamino]butane dihydrochloride], for which the IC50 in assay [1] (Mus musculus, L1210, 72 h) stood at 22 nM. Also, the “CPM/Lung (Mean + SEM)” value is listed as 27953 + 2567 CPM/Lung in assay [2] (6.25 mg/kg i.p. on day 0), 24905 + 2497 CPM/Lung in assay [2] (12.5 mg/kg i.p. on day 0), 6992 + 1417 CPM/Lung in assay [2] (25 mg/kg i.p. on day 0) and 3558 + 476 CPM/Lung in assay [2] (50 mg/kg i.p. on day 0). In addition, the Treated/Control in assay [2] (6.25 mg/kg i.p.) is 0.90; in assay [2] (12.5 mg/kg i.p.) it was 0.80; in assay [2] (25 mg/kg i.p., *p < 0.001 compared to vehicle control), 0.23; in assay [2] (50 mg/kg i.p., *p < 0.001 compared to vehicle control), 0.11. In assay [2] (result in words, mice, B16F10 tumor cell clearance), the “activating nonspecific immune cells against tumor cells” value is “effective in activating nonspecific immune cells against the B16F10 melanoma”.
